Results as given in ChEMBL document CHEMBL3244003, “Synthesis and biological activity of several amino analogues of thymidine” (1978).
Activity calls are given as the source filed them. The rule behind the calls is not given here.

Assays:
[1] = test system: CCRF S-180; assay: Antineoplastic activity against mouse S180 cells at 400 uM; assay type: functional, cell-based
[2] = test system: L1210; assay: Antineoplastic activity against mouse L1210 cells at 400 uM; assay type: functional, cell-based
[3] = test system: Human alphaherpesvirus 1; assay: Antiviral activity against HSV1 at 400 uM; assay type: functional
[4] = test system: L1210; assay: Antineoplastic activity against mouse L1210 cells at 15 uM; assay type: functional
[5] = test system: L1210; assay: Antineoplastic activity against mouse L1210 cells at 3 uM in presence of thymidine relative to compound alone; assay type: functional
[6] = test system: L1210; assay: Antineoplastic activity against mouse L1210 cells at 500 uM; assay type: functional
[7] = test system: L1210; assay: Antineoplastic activity against mouse L1210 cells at 3 uM; assay type: functional
[8] = test system: L1210; assay: Antineoplastic activity against mouse L1210 cells at 1 uM in presence of uridine relative to compound alone; assay type: functional
[9] = test system: L1210; assay: Antineoplastic activity against mouse L1210 cells at 25 uM in presence of deoxycytidine relative to compound alone; assay type: functional
[10] = test system: L1210; assay: Antineoplastic activity against mouse L1210 cells at 5 uM in presence of deoxycytidine relative to compound alone; assay type: functional
[11] = test system: L1210; assay: Antineoplastic activity against mouse L1210 cells at 5 uM in presence of uridine relative to compound alone; assay type: functional
[12] = test system: L1210; assay: Antineoplastic activity against mouse L1210 cells at 1 uM in presence of deoxycytidine relative to compound alone; assay type: functional
[13] = test system: L1210; assay: Antineoplastic activity against mouse L1210 cells at 250 uM; assay type: functional
[14] = test system: L1210; assay: Antineoplastic activity against mouse L1210 cells at 25 uM; assay type: functional
[15] = test system: L1210; assay: Antineoplastic activity against mouse L1210 cells at 25 uM in presence of uridine relative to compound alone; assay type: functional
[16] = test system: L1210; assay: Antineoplastic activity against mouse L1210 cells at 50 uM; assay type: functional
[17] = test system: L1210; assay: Antineoplastic activity against mouse L1210 cells at 25 uM in presence of deoxyadenosine relative to compound alone; assay type: functional
[18] = test system: L1210; assay: Antineoplastic activity against mouse L1210 cells at 5 uM in presence of deoxyguanosine relative to compound alone; assay type: functional
[19] = test system: L1210; assay: Antineoplastic activity against mouse L1210 cells at 27 uM in presence of thymidine relative to compound alone; assay type: functional
[20] = test system: L1210; assay: Antineoplastic activity against mouse L1210 cells at 1 uM in presence of deoxyguanosine relative to compound alone; assay type: functional
[21] = test system: CCRF S-180; assay: Antineoplastic activity against mouse S180 cells at 250 uM; assay type: functional
[22] = test system: L1210; assay: Antineoplastic activity against mouse L1210 cells at 9 uM in presence of thymidine relative to compound alone; assay type: functional
[23] = test system: L1210; assay: Antineoplastic activity against mouse L1210 cells at 25 uM in presence of cytidine relative to compound alone; assay type: functional
[24] = test system: CCRF S-180; assay: Antineoplastic activity against mouse S180 cells at 50 uM; assay type: functional
[25] = test system: L1210; assay: Antineoplastic activity against mouse L1210 cells at 1 uM in presence of deoxyadenosine relative to compound alone; assay type: functional
[26] = test system: L1210; assay: Antineoplastic activity against mouse L1210 cells at 25 uM in presence of deoxyuridine relative to compound alone; assay type: functional
[27] = test system: L1210; assay: Antineoplastic activity against mouse L1210 cells at 1 uM; assay type: functional
[28] = test system: L1210; assay: Antineoplastic activity against mouse L1210 cells at 5 uM in presence of deoxyuridine relative to compound alone; assay type: functional
[29] = test system: L1210; assay: Antineoplastic activity against mouse L1210 cells at 1 uM in presence of deoxyuridine relative to compound alone; assay type: functional
[30] = test system: L1210; assay: Antineoplastic activity against mouse L1210 cells at 0.5 uM; assay type: functional
[31] = test system: L1210; assay: Antineoplastic activity against mouse L1210 cells at 1 uM in presence of thymidine relative to compound alone; assay type: functional
[32] = test system: CCRF S-180; assay: Antineoplastic activity against mouse S180 cells at 5 uM; assay type: functional
[33] = test system: CCRF S-180; assay: Antineoplastic activity against mouse S180 cells at 25 uM; assay type: functional
[34] = test system: CCRF S-180; assay: Antineoplastic activity against mouse S180 cells at 1 uM; assay type: functional
[35] = test system: L1210; assay: Antineoplastic activity against mouse L1210 cells at 5 uM in presence of cytidine relative to compound alone; assay type: functional
[36] = test system: L1210; assay: Antineoplastic activity against mouse L1210 cells at 25 uM in presence of deoxyguanosine relative to compound alone; assay type: functional
[37] = test system: L1210; assay: Antineoplastic activity against mouse L1210 cells at 1 uM in presence of cytidine relative to compound alone; assay type: functional
[38] = test system: L1210; assay: Antineoplastic activity against mouse L1210 cells at 5 uM in presence of deoxyadenosine relative to compound alone; assay type: functional

For `Cc1cn([C@H]2C[C@H](O)[C@@H](CN)O2)c(=O)[nH]c1=O`, the inhibition [1] was “inactive”, the inhibition [2] was “inactive” and the inhibition at 400 µM [3] was 98%.

With `Cc1cn([C@H]2C[C@H](N)[C@@H](CN)O2)c(=O)[nH]c1=O` the inhibition [1] was “inactive”, the inhibition [2] was “inactive” and the inhibition [3] was “inactive”.

Work on `Cc1cn([C@H]2C[C@H](N)[C@@H](CO)O2)c(=O)[nH]c1=O` [3-AMINO- 3-DEOXYTHYMIDINE] yielded an inhibition at 15 µM [4] of 91%, an inhibition at 3 µM [5] of 55.2% and an inhibition at 500 µM [6] of 95%. It also gave an inhibition at 3 µM [7] of 87%, an inhibition at 1 µM [8] of 100% and an inhibition at 25 µM [9] of 28%. The inhibition at 5 µM [10] was 61%, the inhibition at 5 µM [11] was 99% and the inhibition at 1 µM [12] was 80%. For the same compound, the inhibition at 250 µM [13] was 93%, the inhibition at 25 µM [14] was 88% and the inhibition at 25 µM [15] was 95%. It also gave an inhibition at 50 µM [16] of 92%, an inhibition at 25 µM [17] of 93% and an inhibition at 5 µM [18] of 86%. It also gave an inhibition at 27 µM [19] of 22.4%, an inhibition at 1 µM [20] of 87% and an inhibition at 250 µM [21] of 73%. For the same compound, the inhibition at 400 µM [3] was 62%, the inhibition at 9 µM [22] was 38.1% and the inhibition at 25 µM [23] was 99%. It also gave an inhibition at 50 µM [24] of 66%, an inhibition at 1 µM [25] of 89% and an inhibition at 25 µM [26] of 48%. The inhibition at 1 µM [27] was 58%, the inhibition at 5 µM [28] was 74% and the inhibition at 1 µM [29] was 88%. The inhibition at 0.5 µM [30] was 43%, the inhibition at 1 µM [31] was 75.2% and the inhibition at 5 µM [32] was 55%. It also gave an inhibition at 25 µM [33] of 68%, an inhibition at 1 µM [34] of 37% and an inhibition at 5 µM [35] of 100%. The inhibition at 25 µM [36] was 102%, the inhibition at 1 µM [37] was 100% and the inhibition at 5 µM [38] was 89%.
